Some results are limits rather than exact numbers.

The test system of the first test is vesicular stomatitis virus particles (VSV) pseudotyped with EboV Zaire GP. Kind of test: microbe, parasite or virus in culture. The class given is cell-based. The conditions noted are these: Vesicular stomatitis virus.
As usually defined, the IC50 is the midpoint of a concentration-inhibition curve. As for `N#Cc1ccc(Br)cc1CN1CCN(C(=O)CNC(=O)CC23CC4CC(CC(C4)C2)C3)CC1` [Compound 1329, 2-((1R,3R,5S)-Adamantan-1-yl)-N-(2-(4-(5-bromo-2-cyanobenzyl)piperazin-1-yl)-2-oxoethyl)acetamide], the IC50 was 0.31 µM. Still for that read-out and setting: for `O=C(CC12CC3CC(C1)C(C3)C2)NCC(=O)N1CCN(Cc2cc(Cl)cc(OC(F)(F)F)c2)CC1` [Compound 1330] the value was 1.51 µM; for `O=C(CC12CC3CC(CC(C3)C1)C2)NCC(=O)N1CCN(Cc2cc(Cl)cc(Br)c2)CC1` [Compound 1332, 2-((1R,3R,5S)-Adamantan-1-yl)-N-(2-(4-(3-bromo-5-chlorobenzyl)piperazin-1-yl)-2-oxoethyl)acetamide], 0.9 µM; for `COC(=O)c1ccc(COc2ccc(Cl)cc2CN2CCN(C(=O)CNC(=O)CC3CCC(F)(F)CC3)CC2)cc1` [Compound 1333, Methyl 4-((4-chloro-2-((4-((2-(4,4-difluorocyclohexyl)acetyl)glycyl)piperazin-1-yl)methyl)phenoxy)methyl)benzoate], 0.015 µM. With `COC(=O)c1ccc(COc2ccc(Cl)cc2CN2CCN(C(=O)CNC(=O)CC3(C)CCCCC3)CC2)cc1` [Compound 1334, Methyl 4-((4-chloro-2-((4-((2-(1-methylcyclohexyl)acetyl)glycyl)piperazin-1-yl)methyl)phenoxy)methyl)benzoate], it took 0.019 µM to reach half-maximal inhibition (IC50). Turning to `COC(=O)c1ccc(COc2ccc(F)cc2CN2CCN(C(=O)CNC(=O)CC3CCC(F)(F)CC3)CC2)cc1` [Compound 1335, Methyl 4-((2-((4-((2-(4,4-difluorocyclohexyl)acetyl)glycyl)piperazin-1-yl)methyl)-4-fluorophenoxy)methyl)benzoate], the IC50 turned out to be 0.018 µM. Still for that read-out and setting: for `COC(=O)c1ccc(COc2ccc(F)cc2CN2CCN(C(=O)CNC(=O)CC3(C)CCCCC3)CC2)cc1` [Compound 1336, Methyl 4-((4-fluoro-2-((4-((2-(1-methylcyclohexyl)acetyl)glycyl)piperazin-1-yl)methyl)phenoxy)methyl)benzoate] the value was 0.051 µM. For `O=C(CC12CC3CC(CC(C3)C1)C2)NCC(=O)N1CCN(Cc2cc(Br)ccc2F)CC1` [Compound 1337, 2-((1R,3R,5S)-Adamantan-1-yl)-N-(2-(4-(5-bromo-2-fluorobenzyl)piperazin-1-yl)-2-oxoethyl)acetamide], inhibition was half-maximal at 1.2 µM (IC50). `O=C(CC12CC3CC(CC(C3)C1)C2)NCC(=O)N1CCN(Cc2cc(Br)ccc2Cl)CC1` [Compound 1338, 2-((1R,3R,5S)-Adamantan-1-yl)-N-(2-(4-(5-bromo-2-chlorobenzyl)piperazin-1-yl)-2-oxoethyl)acetamide] yielded an IC50 of 0.082 µM.

As to `O=C(CC12CC3CC(CC(C3)C1)C2)NCC(=O)N1CCN(Cc2cc(F)cc(Br)c2)CC1` [Compound 1339, 2-((1R,3R,5S)-Adamantan-1-yl)-N-(2-(4-(3-bromo-5-fluorobenzyl)piperazin-1-yl)-2-oxoethyl)acetamide], 1.4 µM corresponded to half-maximal inhibition (IC50). For `O=C(CC12CC3CC(CC(C3)C1)C2)NCC(=O)N1CCN(Cc2cc(Br)cc([N+](=O)[O-])c2)CC1` [Compound 1340, 2-((1R,3R,5S)-Adamantan-1-yl)-N-(2-(4-(3-bromo-5-nitrobenzyl)piperazin-1-yl)-2-oxoethyl)acetamide], the IC50 turned out to be 1.27 µM. For `Nc1cc(Br)cc(CN2CCN(C(=O)CNC(=O)CC34CC5CC(CC(C5)C3)C4)CC2)c1` [Compound 1341, 2-((1R,3R,5S)-Adamantan-1-yl)-N-(2-(4-(3-amino-5-bromobenzyl)piperazin-1-yl)-2-oxoethyl)acetamide], the IC50 came to 0.32 µM. In turn, `COC(=O)c1ccc(COc2ccccc2CN2CCN(C(=O)CNC(=O)C3C4CC(F)(F)CC43)CC2)cc1` (stereo not drawn) [Compound 1344, Methyl 4-((2-((4-((3,3-difluorobicyclo[3.1.0]hexane-6-carbonyl)glycyl)piperazin-1-yl)methyl)phenoxy)methyl)benzoate] registered a half-maximal inhibitory concentration (IC50) of 0.17 µM. On the same count and under the same terms, for `COC(=O)c1ccc(COc2ccc(Cl)cc2CN2CCN(C(=O)CNC(=O)C3C4CC(F)(F)CC43)CC2)cc1` (stereo not drawn) [Compound 1346, Methyl 4-((4-chloro-2-((4-((3,3-difluorobicyclo[3.1.0]hexane-6-carbonyl)glycyl)piperazin-1-yl)methyl)phenoxy)methyl)benzoate] the value was 0.2 µM. In the case of `N#Cc1cc(Br)cc(CN2CCN(C(=O)CNC(=O)CC34CC5CC(CC(C5)C3)C4)CC2)c1` [Compound 1348, 2-((1R,3R,5S)-Adamantan-1-yl)-N-(2-(4-(3-bromo-5-cyanobenzyl)piperazin-1-yl)-2-oxoethyl)acetamide], the IC50 turned out to be 1.3 µM.

Take `Nc1c(Cl)cc(Cl)cc1CN1CCN(C(=O)CNC(=O)CC23CC4CC(CC(C4)C2)C3)CC1` [Compound 1349, 2-((1R,3R,5S)-Adamantan-1-yl)-N-(2-(4-(2-amino-3,5-dichlorobenzyl)piperazin-1-yl)-2-oxoethyl)acetamide]: the IC50 was determined as 0.5 µM. On the same count and under the same terms, for `O=C(CC12CC3CC(CC(C3)C1)C2)NCC(=O)N1CCN(Cc2cc(Cl)cc(Cl)c2Cl)CC1` [Compound 1350, 2-((1R,3R,5S)-adamantan-1-yl)-N-(2-oxo-2-(4-(2,3,5-trichlorobenzyl)piperazin-1-yl)ethyl)acetamide] the value was 0.8 µM; for `O=C(CC12CC3CC(CC(C3)C1)C2)NCC(=O)N1CCN(Cc2cc(Cl)ccc2Br)CC1` [Compound 1351, 2-((1R,3R,5S)-Adamantan-1-yl)-N-(2-(4-(2-bromo-5-chlorobenzyl)piperazin-1-yl)-2-oxoethyl)acetamide], 1.1 µM; for `C#Cc1ccc(F)c(CN2CCN(C(=O)CNC(=O)CC34CC5CC(CC(C5)C3)C4)CC2)c1` [Compound 1352, 2-((1R,3R,5S)-Adamantan-1-yl)-N-(2-(4-(5-ethynyl-2-fluorobenzyl)piperazin-1-yl)-2-oxoethyl)acetamide], 1.7 µM. `O=C(CC12CC3CC(CC(C3)C1)C2)NCC(=O)N1CCN(Cc2cc(F)c(F)cc2Cl)CC1` [Compound 1353, 2-((1R,3R,5S)-Adamantan-1-yl)-N-(2-(4-(2-chloro-4,5-difluorobenzyl)piperazin-1-yl)-2-oxoethyl)acetamide] came in with an IC50 of 1.5 µM. `O=C(CC12CC3CC(CC(C3)C1)C2)NCC(=O)N1CCN(Cc2cc(OC3CC3)ccc2F)CC1` [Compound 1354, 2-((1R,3R,5S)-Adamantan-1-yl)-N-(2-(4-(5-cyclopropoxy-2-fluorobenzyl)piperazin-1-yl)-2-oxoethyl)acetamide] showed an IC50 greater than 2 µM. Same read-out and setting: for `Nc1ccc(Br)cc1CN1CCN(C(=O)CNC(=O)CC2CCC(F)(F)CC2)CC1` [Compound 1355, N-(2-(4-(2-Amino-5-bromobenzyl)piperazin-1-yl)-2-oxoethyl)-2-(4,4-difluorocyclohexyl)acetamide] the value was 1.74 µM; for `O=C(NCC(=O)N1CCN(Cc2cc(Br)ccc2Cl)CC1)C1C2CC(F)(F)CC21` (stereo not drawn) [Compound 1356, N-(2-(4-(5-bromo-2-chlorobenzyl)piperazin-1-yl)-2-oxoethyl)-3,3-difluorobicyclo[3.1.0]hexane-6-carboxamide], greater than 2 µM. Regarding `COC(=O)c1ccc(COc2ccc(Cl)cc2CN2CCN(C(=O)CNC(=O)C3CC3(F)F)CC2)cc1` (stereo not drawn) [Compound 1357, Methyl 4-((4-chloro-2-((4-((2,2-difluorocyclopropane-1-carbonyl)glycyl)piperazin-1-yl)methyl)phenoxy)methyl)benzoate], the IC50 came out at 0.5 µM. The same measure, in the same setting: for `COC(=O)c1ccc(COc2ccc(Cl)cc2CN2CCN(C(=O)CNC(=O)C(F)(F)C(F)F)CC2)cc1` [Compound 1358, Methyl 4-((4-chloro-2-((4-((2,2,3,3-tetrafluoropropanoyl)glycyl)piperazin-1-yl)methyl)phenoxy)methyl)benzoate] the value was 0.2 µM; for `Nc1ccc(-c2ccc(F)cc2)cc1CN1CCN(C(=O)CNC(=O)CC2CCC(F)(F)CC2)CC1` [Compound 1359, N-(2-(4-((4-Amino-4′-fluoro-[1,1′-biphenyl]-3-yl)methyl)piperazin-1-yl)-2-oxoethyl)-2-(4,4-difluorocyclohexyl)acetamide], greater than 2 µM.

On to `NC(=O)Nc1ccc(Br)cc1CN1CCN(C(=O)CNC(=O)CC2CCC(F)(F)CC2)CC1` [Compound 1360, N-(2-(4-(5-Bromo-2-ureidobenzyl)piperazin-1-yl)-2-oxoethyl)-2-(4,4-difluorocyclohexyl)acetamide], for which the IC50 is greater than 2 µM.

Molecule `NC(=O)Nc1ccc(Cl)cc1CN1CCN(C(=O)CNC(=O)CC2CCC(F)(F)CC2)CC1` [Compound 1361, N-(2-(4-(5-Chloro-2-ureidobenzyl)piperazin-1-yl)-2-oxoethyl)-2-(4,4-difluorocyclohexyl)acetamide] showed an IC50 greater than 2 µM.

`Nc1ccc(Br)cc1CN1CCN(C(=O)CNC(=O)C2C3CC(F)(F)CC32)CC1` (stereo not drawn) [Compound 1362, N-(2-(4-(2-Amino-5-bromobenzyl)piperazin-1-yl)-2-oxoethyl)-3,3-difluorobicyclo[3.1.0]hexane-6-carboxamide]: the IC50 is greater than 2 µM. `O=C(CC12CC3CC(CC(C3)C1)C2)NCC(=O)N1CCN(Cc2c(Cl)cccc2Cl)CC1` [Compound 1363, 2-((1R,3R,5S)-Adamantan-1-yl)-N-(2-(4-(2,6-dichlorobenzyl)piperazin-1-yl)-2-oxoethyl)acetamide] had an IC50 of 1 µM. For `NC(=O)c1ccc(Br)cc1CN1CCN(C(=O)CNC(=O)CC23CC4CC(CC(C4)C2)C3)CC1` [Compound 1364, 2-((4-((2-((1R,3R,5S)-Adamantan-1-yl)acetyl)glycyl)piperazin-1-yl)methyl)-4-bromobenzamide], the IC50 was determined as 1.9 µM.

For the molecule `O=C(CC1CCC(F)(F)CC1)NCC(=O)N1CCN(Cc2cc(Cl)cc(OC3CC3)c2)CC1` [Compound 1365, N-(2-(4-(3-Chloro-5-cyclopropoxybenzyl)piperazin-1-yl)-2-oxoethyl)-2-(4,4-difluorocyclohexyl)acetamide], the IC50 turned out to be 1.6 µM.

The same test, now with this note: read-out: IC50.
For the molecule `CC(=O)Nc1ccc(Cl)cc1CN1CCN(C(=O)CNC(=O)CC23CC4CC(CC(C4)C2)C3)CC1` [Compound 1342, N-(2-(4-(2-Acetamido-5-chlorobenzyl)piperazin-1-yl)-2-oxoethyl)-2-((3s)-adamantan-1-yl)acetamide], the IC50 stood at 1.1 µM.

The values are drawn from patent US11629139B2 (priority 2017, dated 2023).
